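A five-concentration, 48-hour dose response in 96-well plates underlies each endpoint, interpolated linearly between surrounding concentrations. At the GI50, growth is halved.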 Activity calls are given as the source filed them. No stated cut-off is given here; in the data, active = GI50 up to about 1.1 µM and inactive = higher.
How the values were obtained:
Test in all cases: growth of human tumour cells (NCI), 48 h
786-0 = test system: 786-0
NCI-H226 = test system: NCI-H226
OVCAR-3 = test system: OVCAR-3
SF-295 = test system: SF-295
SW-620 = test system: SW-620
SNB-75 = test system: SNB-75
HCT-15 = test system: HCT-15
LXFL 529 = test system: LXFL 529
CAKI-1 = test system: CAKI-1
LOX IMVI = test system: LOX IMVI
SR = test system: SR
SK-MEL-28 = test system: SK-MEL-28
M14 = test system: M14
SN12C = test system: SN12C
SF-539 = test system: SF-539
EKVX = test system: EKVX
A498 = test system: A498
MDA-N = test system: MDA-N
Hs-578T = test system: Hs-578T
PC-3 = test system: PC-3

Compound | GI50 (786-0) | GI50 (NCI-H226) | GI50 (OVCAR-3) | GI50 (SF-295) | GI50 (SW-620) | GI50 (SNB-75) | GI50 (HCT-15) | GI50 (LXFL 529) | GI50 (CAKI-1) | GI50 (LOX IMVI) | GI50 (SR) | GI50 (SK-MEL-28) | GI50 (M14) | GI50 (SN12C) | GI50 (SF-539) | GI50 (EKVX) | GI50 (A498) | GI50 (MDA-N) | GI50 (Hs-578T) | GI50 (PC-3)
C[Si](C)(C)c1ccc(-c2sc(-c3ccc([Si](C)(C)C)s3)c3c2C[Si]2(C3)Cc3c(-c4ccc([Si](C)(C)C)s4)sc(-c4ccc([Si](C)(C)C)s4)c3C2)s1 | > 100 µM (inactive) | > 100 µM (inactive) | > 100 µM (inactive) | > 100 µM (inactive) | > 100 µM (inactive) | 24.9 µM (inactive) | > 100 µM | > 100 µM (inactive) | > 100 µM (inactive) | > 100 µM (inactive) | > 100 µM (inactive) | > 100 µM (inactive) | > 100 µM (inactive) | > 100 µM (inactive) | > 100 µM (inactive) |  |  |  |  | 
CN(C)C(=S)/N=c1\ssc(=S)n1C1CCCCC1 | 17.1 µM (inactive) | 52.5 µM (inactive) |  | 60.5 µM (inactive) | 13.7 µM (inactive) | 42.7 µM (inactive) | 33.1 µM | 13.2 µM (inactive) | 33 µM (inactive) |  | 20.5 µM (inactive) | 36.1 µM (inactive) | 14.7 µM (inactive) | 29.4 µM (inactive) | 20.7 µM (inactive) | 45.7 µM (inactive) | 37.2 µM (inactive) |  |  | 
CCN(CC)CC[n+]1ccc2c(C)c3[nH]c4ccc(O)cc4c3c(C)c2c1 | 3.05 µM (inactive) | 1.05 µM (active) | 14.9 µM (inactive) | 3.01 µM (inactive) | 5.57 µM (inactive) | 1 µM (active) | 18.7 µM | 2.5 µM (inactive) | 13.8 µM (inactive) | 10.8 µM (inactive) | 0.0278 µM (active) | 7.13 µM (inactive) | 10.7 µM (inactive) | 0.414 µM (active) | 3.89 µM (inactive) | 10.8 µM (inactive) | 16.2 µM (inactive) | 8.89 µM (inactive) | 0.552 µM (active) | 7.46 µM (inactive)
Cc1[nH]c2ccccc2c1C(=O)CC1(O)C(=O)Nc2ccccc21 (stereo not drawn) | > 100 µM (inactive) | > 100 µM (inactive) |  | > 100 µM (inactive) | > 100 µM (inactive) | > 100 µM (inactive) | > 100 µM | > 100 µM (inactive) | > 100 µM (inactive) | > 100 µM (inactive) | > 100 µM (inactive) | > 100 µM (inactive) | > 100 µM (inactive) | > 100 µM (inactive) | > 100 µM (inactive) | 73.1 µM (inactive) | > 100 µM (inactive) |  |  | 
COc1ccc(C(C#N)NNC(=O)c2ccccc2O)cc1OC (stereo not drawn) | 1.24 µM (inactive) | 1.96 µM (inactive) | 2.55 µM (inactive) | 1.24 µM (inactive) | 4.56 µM (inactive) | 0.331 µM (active) | 0.893 µM | 0.526 µM (active) | 0.394 µM (active) | 0.735 µM (active) | 0.463 µM (active) | 28.6 µM (inactive) | 0.75 µM (active) | 0.767 µM (active) | 0.705 µM (active) |  |  |  |  | 
N#C/C(=C1\N=NC(N)=C(c2ccc(Cl)cc2)C1=O)c1ccc(Cl)cc1 | > 100 µM (inactive) | > 100 µM (inactive) | > 100 µM (inactive) | > 100 µM (inactive) | > 100 µM (inactive) | > 100 µM (inactive) |  | > 100 µM (inactive) | > 100 µM (inactive) | > 100 µM (inactive) | > 100 µM (inactive) | > 100 µM (inactive) | > 100 µM (inactive) | > 100 µM (inactive) | > 100 µM (inactive) | > 100 µM (inactive) | > 100 µM (inactive) |  |  | 
COc1cc2c(cc1O)CCN[C@@]21CS[C@H]2c3c(OC(C)=O)c(C)c4c(c3C(COC1=O)N1C2C2c3c(cc(C)c(OC)c3O)CC([C@@H]1O)N2C)OCO4 (stereo partly drawn) | 0.0001 µM (active) | < 0.0001 µM (active) | < 0.0001 µM (active) | < 0.0001 µM (active) | < 0.0001 µM (active) | 0.00131 µM (active) | 0.0001 µM | < 1e-06 µM (active) | < 0.0001 µM (active) | < 0.0001 µM (active) | < 1e-06 µM (active) | < 0.0001 µM (active) | < 0.0001 µM (active) | < 0.0001 µM (active) | < 0.0001 µM (active) | < 0.0001 µM (active) |  | < 0.0001 µM (active) | < 0.0001 µM (active) | < 0.0001 µM (active)
COC(=O)C1C(=O)NC2(C)CC1c1ccccc1O2 (stereo not drawn) | > 100 µM (inactive) | > 100 µM (inactive) | > 10 µM (inactive) | > 100 µM (inactive) | > 100 µM (inactive) | 62.7 µM (inactive) | > 100 µM | > 100 µM (inactive) | > 100 µM (inactive) | > 100 µM (inactive) | > 100 µM (inactive) | > 100 µM (inactive) | > 10 µM (inactive) | > 100 µM (inactive) | > 100 µM (inactive) |  | > 100 µM (inactive) |  |  | 
CC(=O)OCC(OC(C)=O)C(OC(C)=O)C(OC(C)=O)C(=O)CNn1c(-c2ccccc2Cl)nc2ccccc2c1=O (stereo not drawn) | > 100 µM (inactive) | > 100 µM (inactive) | > 100 µM (inactive) | > 100 µM (inactive) | > 100 µM (inactive) | > 100 µM (inactive) | > 100 µM | > 100 µM (inactive) | > 100 µM (inactive) | > 100 µM (inactive) | 61.9 µM (inactive) | > 100 µM (inactive) | > 100 µM (inactive) | > 100 µM (inactive) | > 100 µM (inactive) | > 100 µM (inactive) | > 100 µM (inactive) |  |  | 
CCN(CC)CCNC(=O)c1nn(-c2ccc(Cl)cc2)c2c1CCc1cc(OC)ccc1-2 | 3.52 µM (inactive) | 9.38 µM (inactive) | 7.24 µM (inactive) | 3.74 µM (inactive) | 3.26 µM (inactive) | 5.21 µM (inactive) | 2.92 µM | 4.74 µM (inactive) | 8.41 µM (inactive) | 2.03 µM (inactive) | 4.28 µM (inactive) | 2.03 µM (inactive) | 2.38 µM (inactive) | 10.4 µM (inactive) | 4.21 µM (inactive) | 10.2 µM (inactive) | 8.61 µM (inactive) | 3.51 µM (inactive) | 3.26 µM (inactive) | 12.6 µM (inactive)
Nc1ncnc2c1ncn2C1CC(O)C(CO)O1 (stereo not drawn) | > 100 µM (inactive) | > 100 µM (inactive) | > 100 µM (inactive) | > 100 µM (inactive) | > 100 µM (inactive) | > 100 µM (inactive) | > 100 µM | > 100 µM (inactive) | > 100 µM (inactive) | > 100 µM (inactive) | > 100 µM (inactive) | > 100 µM (inactive) | > 100 µM (inactive) | > 100 µM (inactive) | > 100 µM (inactive) | > 100 µM (inactive) | > 100 µM (inactive) | > 100 µM (inactive) |  | > 100 µM (inactive)
Cc1cccc2[s+]snc12 | > 76.9 µM (inactive) | > 100 µM (inactive) | 30.1 µM (inactive) | > 100 µM (inactive) | 24.2 µM (inactive) | > 100 µM (inactive) | > 47.4 µM | 36.1 µM (inactive) | > 78.2 µM (inactive) | 49.5 µM (inactive) | 31.3 µM (inactive) | > 47.5 µM (inactive) | > 68.5 µM (inactive) | > 69.2 µM (inactive) | > 100 µM (inactive) | > 51.3 µM (inactive) | > 100 µM (inactive) |  |  | 
COc1ccc(/C=C2\CCC(Cc3ccccc3)(CN(C)C)C2=O)cc1 (stereo not drawn) | 41.7 µM (inactive) | 42 µM (inactive) | 43.7 µM (inactive) | > 83.2 µM (inactive) | 26.7 µM (inactive) | 94.2 µM (inactive) | 26.7 µM | 36.1 µM (inactive) | 48 µM (inactive) | 24.5 µM (inactive) | 20.6 µM (inactive) | > 72.9 µM (inactive) | 26.7 µM (inactive) | 61.2 µM (inactive) | 57 µM (inactive) | 42.5 µM (inactive) | 58.6 µM (inactive) | 38.3 µM (inactive) | > 91.2 µM (inactive) | 83.9 µM (inactive)
CC1=C2[C@@H](c3ccccc3)C3C=CC2(c2ccccc23)N(C(=O)Nc2cccc3ccccc23)C1=O (stereo partly drawn) | > 100 µM (inactive) |  | > 100 µM (inactive) | > 100 µM (inactive) | > 100 µM (inactive) |  | > 100 µM | > 100 µM (inactive) | > 100 µM (inactive) | > 100 µM (inactive) | > 100 µM (inactive) | > 100 µM (inactive) | > 100 µM (inactive) | > 100 µM (inactive) | > 100 µM (inactive) | > 100 µM (inactive) | > 100 µM (inactive) |  |  | 
O=C(CC1(O)C(=O)Nc2c(Cl)cc(Cl)cc21)c1ccc(Br)cc1 (stereo not drawn) | 13.2 µM (inactive) | 14.9 µM (inactive) | 14.1 µM (inactive) | 29.5 µM (inactive) | 26.9 µM (inactive) | 17.1 µM (inactive) | 35 µM | > 37.9 µM (inactive) | 16.1 µM (inactive) | 22.5 µM (inactive) | 19.8 µM (inactive) | 19.7 µM (inactive) | 17.6 µM (inactive) | 33.1 µM (inactive) | 16.3 µM (inactive) | 15.2 µM (inactive) | > 49.2 µM (inactive) |  |  | 
COc1ccc(CN2C(=O)[C@@H]3Cc4c(OC)c(C)c(OC)c(OC)c4[C@H](/C2=C\c2cc(OC)c(OC)c(C)c2OC)N3C(=O)OC(C)C)cc1 | > 100 µM (inactive) | 5.57 µM (inactive) | 99.1 µM (inactive) | 96.2 µM (inactive) | 94.8 µM (inactive) | > 100 µM (inactive) |  | 7.24 µM (inactive) | 30.3 µM (inactive) | 43 µM (inactive) | 6.53 µM (inactive) | > 100 µM (inactive) | 28.4 µM (inactive) | > 100 µM (inactive) | > 100 µM (inactive) | 12.2 µM (inactive) | 27.3 µM (inactive) |  |  | 
